One assay concerns the target T1, TRPV3 (Homo sapiens, UniProt Q8NET8).
T1 sequence (Q8NET8 1-790): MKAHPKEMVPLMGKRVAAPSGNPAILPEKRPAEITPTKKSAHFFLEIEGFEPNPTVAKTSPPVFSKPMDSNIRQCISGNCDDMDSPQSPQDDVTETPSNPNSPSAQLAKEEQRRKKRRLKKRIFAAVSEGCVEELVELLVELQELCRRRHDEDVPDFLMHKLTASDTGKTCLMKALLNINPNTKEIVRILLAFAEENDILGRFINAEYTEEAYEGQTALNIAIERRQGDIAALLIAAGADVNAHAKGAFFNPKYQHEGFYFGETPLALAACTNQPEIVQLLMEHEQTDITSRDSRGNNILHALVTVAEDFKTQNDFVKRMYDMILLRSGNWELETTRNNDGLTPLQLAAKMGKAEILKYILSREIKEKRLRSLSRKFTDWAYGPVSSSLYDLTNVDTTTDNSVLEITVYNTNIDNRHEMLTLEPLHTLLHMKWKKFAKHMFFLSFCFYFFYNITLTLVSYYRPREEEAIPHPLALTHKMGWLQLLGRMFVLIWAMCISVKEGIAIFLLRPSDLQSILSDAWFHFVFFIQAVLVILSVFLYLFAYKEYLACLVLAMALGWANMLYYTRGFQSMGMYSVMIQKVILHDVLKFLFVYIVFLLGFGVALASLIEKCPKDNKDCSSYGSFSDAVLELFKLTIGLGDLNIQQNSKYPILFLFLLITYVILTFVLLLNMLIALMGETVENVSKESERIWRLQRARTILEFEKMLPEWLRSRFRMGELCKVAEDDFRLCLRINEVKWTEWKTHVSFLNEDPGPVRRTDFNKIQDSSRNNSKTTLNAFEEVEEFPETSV
Briefly: whole-cell patch clamp, TRPV3-overexpressing HEK […], 2-APB-activated current. In kind it is cell-based. On the technique in general: The patch-clamp technique gives a direct electrical read-out from membranes.

A further assay deals with T2, Orai1 (Homo sapiens, UniProt Q96D31).
T2 construct: with STIM1
The experiment in a line: whole-cell patch clamp, Orai1/STIM1 co-expressing HEK […]. In kind it is cell-based.

Each structure is given as a SMILES string.

T2 sequence (Q96D31 whole entry): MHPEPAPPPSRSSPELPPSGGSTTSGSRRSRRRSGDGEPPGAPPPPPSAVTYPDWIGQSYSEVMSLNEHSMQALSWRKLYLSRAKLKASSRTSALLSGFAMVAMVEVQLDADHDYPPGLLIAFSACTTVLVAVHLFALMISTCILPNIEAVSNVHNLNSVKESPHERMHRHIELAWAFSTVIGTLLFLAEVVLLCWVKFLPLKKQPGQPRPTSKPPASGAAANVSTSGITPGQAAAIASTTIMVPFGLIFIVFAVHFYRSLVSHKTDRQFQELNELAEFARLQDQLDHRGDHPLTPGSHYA
T2 sequence (Q13586 23-685 partner): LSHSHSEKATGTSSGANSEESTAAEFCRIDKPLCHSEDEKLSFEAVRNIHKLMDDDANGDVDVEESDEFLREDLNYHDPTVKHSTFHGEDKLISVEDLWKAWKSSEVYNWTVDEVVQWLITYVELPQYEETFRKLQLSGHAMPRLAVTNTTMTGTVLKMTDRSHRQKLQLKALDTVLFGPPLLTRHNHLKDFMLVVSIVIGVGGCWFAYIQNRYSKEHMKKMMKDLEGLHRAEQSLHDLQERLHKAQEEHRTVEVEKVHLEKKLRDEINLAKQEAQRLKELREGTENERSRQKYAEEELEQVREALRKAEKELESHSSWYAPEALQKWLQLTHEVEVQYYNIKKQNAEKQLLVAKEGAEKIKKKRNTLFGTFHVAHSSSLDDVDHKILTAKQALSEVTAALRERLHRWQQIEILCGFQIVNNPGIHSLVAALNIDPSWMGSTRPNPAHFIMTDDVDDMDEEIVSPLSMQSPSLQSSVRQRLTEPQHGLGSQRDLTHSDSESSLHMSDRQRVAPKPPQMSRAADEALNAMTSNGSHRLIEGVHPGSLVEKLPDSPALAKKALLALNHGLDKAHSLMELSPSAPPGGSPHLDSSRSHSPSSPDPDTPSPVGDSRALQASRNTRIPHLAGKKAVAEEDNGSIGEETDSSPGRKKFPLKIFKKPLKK

By IC50 is commonly meant the concentration that inhibits the measured activity by half. The low end stands for greater potency, the high end for weaker potency. As for `CCc1c(O)c(O)c2c(c1O)C(=O)C(O)=C(O)C2=O` [Ech A, 6-ethyl-2,3,5,7,8-pentahydroxy-1,4-naphthoquinone], the half-maximal inhibitory concentration (IC50) against TRPV3 was 2110 ± 1050 nM; against Orai1 it was 2410 ± 1550 nM.

Source of the values: paper PMC9963876, “Multiple Effects of Echinochrome A on Selected Ion Channels Implicated in Skin Physiology” (Marine Drugs, 2023).
